Experimental data taken from patent US8404665B2, “In vivo use of glutathione S-transferase activated nitric oxide donors” (University of Utah Research Foundation, priority 2002, dated 2013).
Read-outs that look alike come from different tables or passages of the source.

Assays:
[1] = Reactivity of JS-K with GSH (HPLC-MS, pseudo-first order kinetics); format: physicochemical; details: 37° C.
Experimental: Chromatography and Mass Spectrometry. High Performance Liquid Chromatography (HPLC) separations were carried out with a Phenomenex Luna 5 u C18(2) column (Torrance, Calif.) using a gradient of acetonitrile:water (each containing 0.1% formic acid) at a flow rate of 1 ml/min (% acetonitrile: 25% for 0-5 min followed by a linear program to 70% at 15 min).
HPLC-Mass Spectrometry (MS) studies were performed on an Agilent Capillary Series 1100 LC/MSD Ion Trap mass spectrometer with electrospray ionization in the positive ion mode (CITY, STATE). Separations were effected as above, except that the flow rate was 15 ul/min and the gradient was 10% acetonitrile for 0-5 min followed by a linear program to 70% at 15 min.
The diazeniumdiolate ion appears to resemble chloride as a leaving group in SNAr reactions (Saavedra, J. E. et al. (2001) J. Org. Chem. 66: 3090-3098). Since 1-chloro-2,4-dinitrobenzene is believed to react with GSH, it was anticipated that JS-K would be similarly converted to DNP-SG. This was indicated by HPLC-MS where there appeared to be an 85% conversion of JS-K to DNP-SG within a 30-min incubation period at 37° C. in pH 7.4 phosphate buffer. Similar results appeared in a RPMI-1640 cell culture medium. Pseudo-first order kinetic plots for the reaction of GSH with JS-K in 0.1 M phosphate buffer (pH 7.4) were obtained with GSH (1-5 mM) in large excess of the substrate. Excellent first-order behavior was observed over several half-lives, and measured first-order rate constants appeared to show a linear dependence on [GSH]. The slope and y-intercept of the line yielded values for the second-order [k2=(1.02±0.04) M^−1 s^−1] and first order [k1=(4±12)×10^−5 s^−1] rate constants for the reactions of JS-K with GSH and water, respectively, at 37° C. in 0.1 M phosphate buffer, pH 7.4. The ultraviolet spectral changes accompanying the reaction in a second cell culture medium (Dulbecco's Modified Eagle's Medium) appeared to confirm the above stated kinetic rate constants.

[2] = system: bacterial, viral, fungal or parasitic infection; experiment: Treatment of bacterial, viral, fungal or parasitic infection in an individual; format: in vivo; details: therapeutically effective amount
Experimental: An individual with a bacterial, viral, fungal or parasitic infection is administered a therapeutically effective amount of JS-K to treat such infection.

[3] = system: HL-60 cells; experiment: NO generation (nitrate and nitrite) by HL-60 cells in serum-free PBS; format: cell-based, human
Experimental: Production of NO was then determined by measuring levels of nitrate and nitrite, byproducts of NO oxidation. Serum-free buffer was used to eliminate the confounding effects of nitrates in the serum or medium. When added to HL-60 cells suspended in serum-free phosphate buffered saline (PBS) buffer at a concentration of 10 μM, JS-K appeared to generate NO in a time-dependent fashion with peak levels at 24 hours. […] For this, JS-K was added to HL-60 cells suspended in serum-free PBS at a concentration of 20 μM and nitrate+nitrite levels in the supernatants were determined 24 hours post-addition.

[4] = system: U937 cells; experiment: U937 leukemia cell growth; format: cell-based, human
Experimental: Cell Lines and Culture Conditions. HL-60, DLD1, and U937 cells were obtained from ATCC (Rockville, Md.). Meth A cells were from Dr. Wolfram Samlowski (University of Utah, Salt Lake City, Utah). The PPC-1 cell line was provided by Dr. Graeme Bolger (University of Alabama, Birmingham, Ala.). For the cell growth and apoptosis experiments, cells were cultured at a density of 150,000 cells/ml in RPMI-1640 with 10% fetal bovine serum at 37° C. in a 5% CO2 humidified atmosphere. Agents were added at the indicated concentrations 24 h after culture initiation. […]
Cell Growth, Differentiation and Apoptosis Assays. The number of viable cells was determined using the MTT assay according to the manufacturer's protocol (Promega, Madison, Wis.) or using a Coulter counter. […] The assay is useful in calorimetric quantitation of cell viability and proliferation. In contrast, cell differentiation was evaluated using Wright and Non-Specific Esterase (NSE) staining of cells collected on microscope slides by cytospin as previously described (Magrinat, G. et al. (1992) Blood 80: 1880-1884). […]
The antiproliferative effects in the human AML (Acute Myeloid Leukemia) cell lines, HL-60 (myeloid leukemia) and U937 (monoblastic leukemia) cells were treated with JS-K for a period of 3 days, upon which cell growth was evaluated using a Coulter counter (CITY, STATE). […]

## CCOC(=O)N1CCN(/[N+]([O-])=N/Oc2ccc([N+](=O)[O-])cc2[N+](=O)[O-])CC1 [JS-K, O^2-(2,4-dinitrophenyl) 1-[(4-ethoxycarbonyl)piperazin-1-yl]diazen-1-ium-1,2-diolate]
[1]; 0.1 M phosphate buffer, pH 7.4
  first order rate constant k1, reaction with water (y-intercept): (4±12)×10^−5 s^−1
  second-order rate constant k2, reaction with GSH: 1.02 ± 0.04 M⁻¹ s⁻¹
[1]; within 30-min incubation, pH 7.4 phosphate buffer
  conversion of JS-K to DNP-SG: 85%
[2]
  effect on infection: causes elimination of such infection
[3]; 10 μM, HL-60 cells in serum-free PBS
  time of peak NO levels (nitrate and nitrite): 24 h
[3]; 20 μM, nitrate+nitrite in supernatants 24 hours post-addition
  extent of NO release versus cell number: positively correlated with the cell number
[3]; cell supernatants only
  activation of JS-K and NO release by supernatants from HL-60 cells: did not induce activation of JS-K and NO release
[4]; U937 (monocytic leukemia) cells, read-out: IC50, growth
  IC50: 300 nM
[4]; U937, 3 days, Coulter counter, read-out: IC50, cell growth
  IC50: 330 nM
